Numbering of substitutions follows the chain as printed. Read-outs that look alike come from different tables or passages of the source. Ends that are not written are not given here.
Assays:
Experiment in all cases: PDK1 activity assay with T308tide
Format in all cases: biochemical
GST-PDK1 [Gln150Lys] = target: T1, GST-PDK1 [Gln150Lys] (Homo sapiens, UniProt O15530, Q150K)
T1 construct: different protein constructs, comprising the full length protein or the catalytic domain alone; made in house; host or cells: HEK293 cells (pEBG-2T-PDK1 mutant)
T1 sequence (O15530 1-556 Q150K): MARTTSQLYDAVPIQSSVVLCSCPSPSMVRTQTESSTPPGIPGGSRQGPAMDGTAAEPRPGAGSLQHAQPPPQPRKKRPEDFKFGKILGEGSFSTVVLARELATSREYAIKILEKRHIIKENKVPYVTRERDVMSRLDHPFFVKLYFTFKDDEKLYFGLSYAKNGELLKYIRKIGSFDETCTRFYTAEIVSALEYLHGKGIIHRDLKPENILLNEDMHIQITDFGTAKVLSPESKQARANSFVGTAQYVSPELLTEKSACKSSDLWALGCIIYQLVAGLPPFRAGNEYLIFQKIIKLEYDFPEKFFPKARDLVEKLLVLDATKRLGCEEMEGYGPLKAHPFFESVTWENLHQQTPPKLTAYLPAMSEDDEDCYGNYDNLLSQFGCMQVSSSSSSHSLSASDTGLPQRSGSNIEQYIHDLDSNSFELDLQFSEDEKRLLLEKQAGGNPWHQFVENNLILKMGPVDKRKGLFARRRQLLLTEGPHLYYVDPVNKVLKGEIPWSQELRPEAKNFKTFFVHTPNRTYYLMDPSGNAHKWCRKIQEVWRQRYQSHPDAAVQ

GST-PDK1 [Leu155Val] = target: T2, GST-PDK1 [Leu155Val] (Homo sapiens, UniProt O15530, L155V)
T2 construct: different protein constructs, comprising the full length protein or the catalytic domain alone; made in house; host or cells: HEK293 cells (pEBG-2T-PDK1 mutant)
T2 sequence (O15530 whole entry L155V, the tested form may be a part): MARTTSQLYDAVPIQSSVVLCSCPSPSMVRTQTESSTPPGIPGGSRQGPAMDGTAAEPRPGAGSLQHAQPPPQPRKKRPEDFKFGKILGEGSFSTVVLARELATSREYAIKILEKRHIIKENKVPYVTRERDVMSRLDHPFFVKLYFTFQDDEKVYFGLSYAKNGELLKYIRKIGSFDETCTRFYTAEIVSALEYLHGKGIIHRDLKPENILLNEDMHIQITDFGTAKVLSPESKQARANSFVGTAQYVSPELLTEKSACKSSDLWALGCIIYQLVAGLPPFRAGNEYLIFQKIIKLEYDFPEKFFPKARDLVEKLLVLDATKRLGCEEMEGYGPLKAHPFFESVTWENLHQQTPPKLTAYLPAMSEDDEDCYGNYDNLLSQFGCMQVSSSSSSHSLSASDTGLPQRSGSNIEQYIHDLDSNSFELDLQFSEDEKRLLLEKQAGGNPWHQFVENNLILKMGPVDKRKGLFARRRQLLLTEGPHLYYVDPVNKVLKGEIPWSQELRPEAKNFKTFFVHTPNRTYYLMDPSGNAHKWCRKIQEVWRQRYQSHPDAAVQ

GST-PDK1 [Lys115Met] = target: T3, GST-PDK1 [Lys115Met] (Homo sapiens, UniProt O15530, K115M)
T3 construct: different protein constructs, comprising the full length protein or the catalytic domain alone; made in house; host or cells: HEK293 cells (pEBG-2T-PDK1 mutant)
T3 sequence (O15530 whole entry K115M, the tested form may be a part): as the sequence (O15530 whole entry L155V, the tested form may be a part) above, with K115M, V155L counted along it

GST-PDK1 [Ser135Ala] = target: T4, GST-PDK1 [Ser135Ala] (Homo sapiens, UniProt O15530, S135A)
T4 construct: different protein constructs, comprising the full length protein or the catalytic domain alone; made in house; host or cells: HEK293 cells (pEBG-2T-PDK1 mutant)
T4 sequence (O15530 1-556 S135A): T1 sequence (O15530 1-556 Q150K) with S135A, K150Q

GST-PDK1 [Val124Leu] = target: T5, GST-PDK1 [Val124Leu] (Homo sapiens, UniProt O15530, V124L)
T5 construct: different protein constructs, comprising the full length protein or the catalytic domain alone; made in house; host or cells: HEK293 cells (pEBG-2T-PDK1 mutant)
T5 sequence (O15530 1-556 V124L): T1 sequence (O15530 1-556 Q150K) with V124L, K150Q

| AC50 (GST-PDK1 [Gln150Lys]) [µM] | Max. activity (GST-PDK1 [Gln150Lys]) [U/mg] | AC50 (GST-PDK1 [Leu155Val]) | AC50 (GST-PDK1 [Lys115Met]; read-out: AC50) [µM] | AC50 (GST-PDK1 [Ser135Ala]) [µM] | Max. activity (GST-PDK1 [Ser135Ala]) [U/mg] | AC50 (GST-PDK1 [Val124Leu]) [µM] | Max. activity (GST-PDK1 [Val124Leu]) [U/mg] | AC50 (GST-PDK1 [Lys115Met]) | Compound |
| --- | --- | --- | --- | --- | --- | --- | --- | --- | --- |
| 15 ± 4 | 1.37 ± 0.06 | No Effect | > 200 | 109 ± 33 | 2.82 ± 0.4 | 180 ± 60 | 1.1 ± 0.13 |  | O=C(O)CSC(CC(=O)c1ccc(Cl)cc1)c1ccccc1 (stereo not shown) [Compound 1] |
| 0.29 ± 0.05 | 2.7 ± 0.2 | No Effect |  | 0.18 ± 0.02 | 3.4 ± 0.09 | 0.35 ± 0.2 | 0.59 ± 0.04 | No Effect | REPRILSEEEQEMFRDFDYIADWC [PIFtide, reference compound] |
